Test results reported in patent US20260365621A1, “Non-Hallucinogenic Tryptamine Compounds” (priority 2022, published 2026).
Like-named read-outs stand apart in the source and are kept apart here.

Tests used:
[1] = test system: head twitch response in C57BL/6J male mice; format: in vivo
Description: The study of example 2 was performed using C57BL/6J male mice (25-30 g; Envigo, Milan, Italy). The animals were divided into groups of 10 animals each: (a) control, (b) vehicle, and (c) combinations of psilocyn (1 mg/kg) and pinoline (3 or 10 mg/kg). The treated mice were left to fast in the 12 hours prior to administration. Psilocyn and pinoline were resuspended in a solution of EtOH 20%. Mice were subjected to a singular oral administration of compounds. The vehicle group was given the EtOH 20% solution.
After administration, the animals were placed individually in transparent plexiglass cages. […] (See Halberstadt, Adam L., et al. “Differential contributions of serotonin receptors to the behavioral effects of indoleamine hallucinogens in mice.” Journal of psychopharmacology 25.11 (2011): 1548-1561.) (Sun, Yina, et al. “Effects of low-doses of methamphetamine on d-fenfluramine-induced head-twitch response (HTR) in mice during ageing and c-fos expression in the prefrontal cortex.” BMC neuroscience 24.1 (2023): 1-17.).

5-HT2A [2] = settings: Central Nervous System (CNS); cited from earlier work
[3] = test system: mechanical allodynia / paw-withdrawal threshold after CAR injection; assay: Mechanical allodynia, Von Frey hair test after CAR injection; settings: Psilocin alone at 3 and 10 mg/Kg
Description: A study was performed using male Sprague-Dawley rats (200-250 g; Envigo, Milan, Italy). Food and water were accessible ad libitum. Rats were concurrently subjected to a singular subplantar injection of CAR (100 μL of saline solution containing 1% CAR).
Mechanical allodynia was evaluated using a dynamic plantar Von Frey hair aesthesiometer on time 0 and 1, 2, 3, 4, 5, and 6 days post-injection (Bio-EVF4; Bioseb, Vitrolles, France) as previously described (D'Amico, R.; Fusco, R.; Siracusa, R.; Impellizzeri, D.; Peritore, A. F.; Gugliandolo, E.; Interdonato, L.; Sforza, A. M.; Crupi, R.; Cuzzocrea, S.; et al. Inhibition of P2X7 Purinergic Receptor Ameliorates Fibromyalgia Syndrome by Suppressing NLRP3 Pathway. Int. J. Mol. Sci. 2021, 22, 6471. https://doi.org/10.3390/ijms22126471). The device encloses a force transducer furnished with a plastic tip. When pressure is applied to the tip, the force applied is recorded. The tip was applied to the plantar area of the hind leg, and a rising upward force was exerted until the paw was withdrawn. The withdrawal threshold was defined as the force, expressed in grams, at which the mouse removed the paw.
To investigate whether Psilocin+Pinoline were able to reduce pain associated with CAR injection, a Von Frey test was performed.

5-HT2A [4] = settings: Central Nervous System (CNS); cited from earlier work; remark: listed apart in the source
CAR-induced paw edema = assay: Carrageenan (CAR)-induced rat paw edema (plethysmometer); settings: Psilocin alone at 3 and 10 mg/Kg
Description: A study was performed using male Sprague-Dawley rats (200-250 g; Envigo, Milan, Italy). Food and water were accessible ad libitum. Rats were concurrently subjected to a singular subplantar injection of CAR (100 μL of saline solution containing 1% CAR). […] Edema was expressed as the increase in paw volume (mL) after CAR injection relative to the pre-injection value for all animals. Scores were expressed as paw volume difference (mL).

COc1ccc2[nH]c3c(c2c1)CCNC3 [Pinoline, pinoline]
effect of pinoline on psilocin activity (head twitch) ([1]; pinoline 3 mg/kg with psilocin 1 mg/kg): prolonged the psilocin (1 mg/kg) activity
effect of pinoline on psilocin activity (head twitch) ([1]; pinoline 10 mg/kg with psilocin 1 mg/kg): prolonged the psilocin (1 mg/kg) activity

CN(C)CCc1c[nH]c2cccc(O)c12 [Psilocin, 4-hydroxy-N,N-dimethyltryptamine]
binding to 5-HT2A receptor (5-HT2A [2]): known to bind
analgesic effects [3]: anti-inflammatory and analgesic effects
effect in head twitch test, 11-20 minutes ([1]; 10 mg/kg alone, after 11-20 minutes from administration): finished
number of head movements ([1]; 10 mg/kg, after 10 minutes from treatment): important number of head movements
activities caused by 5-HT2A binding in the CNS (5-HT2A [4]): hallucinogenic, anxiolytic, and psychoactive activities
anti-inflammatory effects (CAR-induced paw edema): anti-inflammatory and analgesic effects

CN(C)CCc1c[nH]c2cccc(OP(=O)(O)O)c12 [Psilocybin, 4-phosphoryloxy-N,N-dimethyltryptamine]
binding to 5-HT2A receptor (5-HT2A [2]): known to bind
activities caused by 5-HT2A binding in the CNS (5-HT2A [4]): hallucinogenic, anxiolytic, and psychoactive activities
